Laboratory results published in US7554012B2, “Plants and plant cells exhibiting resistance to AMPA, and methods for making the same” (priority 1998, dated 2009).
Values joined by “and” are separate entries in the source; they are usually repeats but may differ in a detail not shown here. Equal values may be shown once.

Assays:
[1] = system: Achromobacter sp. strain LBAA; assay: Glyphosate degradation pathway in resting cells
Procedure: The glyphosate degradation pathway was characterized in resting cells of glyphosate-grown Achromobacter sp. strain LBAA according to the following procedure. Cells from a 100 ml culture of LBAA, grown in DF3S medium containing glucose, gluconate and citrate as carbon sources and with thiamine and Yeast Extract (0.01%) to supply trace requirements and with glyphosate at 0.2 mM as a phosphorous source, were harvested at a cell density of 200 Klett units, washed twice with 20 ml of DF3S medium and the equivalent of 20 ml of cells were resuspended in […] of the same medium containing [^14C]glyphosate (2.5 ml of 52 mCi/mmol, Amersham; CFA.745). The cell mix was incubated at 30° C. with shaking and 20 ml samples were withdrawn at various intervals. The samples were centrifuged to separate the cells from the broth supernatant. Both the supernatant and cell pellets were analyzed by HPLC.
Samples prepared in this way were analyzed by strong anion exchange (SAX) HPLC with radioisotope label detection to determine their levels of [^14C]-AMPA and N-acetyl-[^14C]-AMPA. Samples were injected using a Waters WISP autoinjector. Chromatographic profiles and quantitative data were collected using MACS2, Monsanto's automated chromatography data collection system. A Spherisorb S5 SAX, 250 mm×10 mm column, or an Alltech 5 micron, 250 mm×10 mm SAX column was used for the analyses. Solvents used were designated as solution A and solution B. Solution A contained 0.005M KH2PO4 adjusted to pH 2.0 with H3PO4 in 4% methanol. Solution B contained 0.10 M KH2PO4 adjusted to pH 2.0 with H3PO4 in 4% methanol. Each sample run time consisted of a step gradient program with an eluent flow rate of 3 ml per minute and a scintillation fluid (tradename ATOMFLOW, No. NEN-995 obtained from Packard Instruments) flow rate of 9 ml per minute. The HPLC solvent profile for distinguishing [^14C]-AMPA from N-acetyl-[^14C]-AMPA in each sample analyzed was represented by 100% solvent A at times zero through 5 minutes, then solvent B at 100% at time 5 minutes through 15 minutes, then 100% solvent A through 20 minutes at which time the column is prepared to receive another sample.
Cell pellets were first resuspended in DF3S medium made acidic by addition of 0.65N HCl, boiled for 5 minutes, then centrifuged briefly to provide a solution phase for HPLC analysis. Supernatants were treated similarly prior to HPLC analysis.
The GOX mediated glyphosate degradation pathway was elucidated further in a subsequent experiment where the metabolism of [^14C]AMPA was compared to that of [^14C]glyphosate as indicated above in resting cells harvested at 165 Klett units and resuspended at the equivalent of 15 ml cells per 100 ml DF3S medium. The samples were analyzed by HPLC and consisted of whole cultures acidified and treated as described above.

transformed corn callus = assay: [^14C]-glyphosate metabolism assay in corn callus
From the text: A [^14C]-glyphosate metabolism assay was used for determining whether transformed corn callus tissues contain functioning forms of these enzymes. The assay was developed to screen large numbers of corn callus samples. Callus was obtained from Monsanto Company and Dekalb Seed Company corn transformation groups. The Monsanto callus samples, individually designated as callus lines “19nn-nn-nn” in Table 16, were produced from HI II×B73 corn embryos. Callus samples were bombarded with complete covalently closed circular recombinant plant transformation vector plasmid DNA or with linear DNA fragments isolated from such plasmids 25-50 days after embryo isolation. Transformed lines were identified 8-14 weeks after bombardment. These lines were sub-cultured on fresh media every 2 weeks and were 5-7 months old when used in the metabolism assay. The Dekalb callus lines OO, OR, OW, OX, and OY were obtained from HI II×AW embryos. All line designations correspond to the recombinant plasmid or linear fragment used for ballistic transformation of callus tissue as noted in the legend to Table 16.
4.5 mCi of N-phosphono-[^14C]-methylglycine ([^14C]-glyphosate) was obtained from the Monsanto Radiosynthesis group in a 1.5 mM aqueous solution, having a specific radioactivity of 39.4 mCi/mM (5.2×10^5 dpm/microgram). The sample was identified with code number C-2182.2. A stock solution sterilized by filtration through a 0.2-micron Acrodisk (Gelman no. 4192) was prepared by combining 2.5 mL [^14C]-glyphosate (3.3×10^8 dpm) with 2.5 mL of corn callus growth medium (N6 medium) and 5.0 mg of Mon 0818 surfactant. [^14C]-glyphosate in the resulting dose solution was 0.75 mM. The N6 medium was described by Chu et al. (1975) and was prepared using salts and vitamins obtained from Sigma Chemical Company, St. Louis, Mo. Mon 0818 surfactant is ethoxylated tallowamine, the surfactant used in Roundup herbicide. The dose solution was subjected to HPLC analysis as described in Example 2. […] Two additional dose solutions were prepared using these reagents, each of which were scaled three fold to 15 ml volumes based on the preparation method described above.
Under aseptic conditions, corn callus samples were transferred to individual wells of sterile 48-well COSTAR™ cell culture clusters (cat. No. 3548). The individual callus samples were not weighed. However, in several cases the total weight of the callus samples in a 48-well plate was determined. Typically, the average weight of individual callus samples was approximately 200-250 mg. In each assay, a nontransformed callus sample, HI II×B73, was included as a control. 50 μL of dose solution containing 3.3×10^6 dpm of [^14C]-glyphosate was added to each callus sample. 48-well plates were sealed with parafilm and placed in a plastic bag containing a wet paper towel to provide a moist atmosphere. Bags were closed and placed in a dark drawer at 25° C. for 10 days. Each callus sample was subsequently transferred to a labeled microcentrifuge tube (VWR, 1.7-mL, cat. No. 20170-620). 1.0 mL of de-ionized water was added to each tube, and the tubes were closed and placed in round 20-tube floating microcentrifuge racks (Nalge cat. no. 5974-1015). These microfuge tubes were floated in boiling water for 30 minutes, shaken using a vortex mixer, and centrifuged for 5 minutes using a Fisher brand microcentrifuge. 120-μL supernatant samples were removed for analysis by HPLC as described below. The samples were injected using a Waters WISP autoinjector.

[2] = whole cultures exposed two hours
[3] = FIG. 3, callus transformed with GOX and AMPA acetyltransferase
[4] = control callus HI II×B73, no inserted genes

NCP(=O)(O)O [AMPA, N-aminomethyl phosphonic acid]
label as AMPA [1, 2]: 59% | label in the 13.2 minute peak (N-acetyl-AMPA) [1, 2]: 18% | label in the methylamine/N-acetyl-methylamine peak [1, 2]: 15%

N-phosphono-methyl-glycine [Glyphosate]
glyphosate found within the cell ([1]; two hours incubation): About 3% | material co-eluting with the methylamine standard, of initial radioactivity in the cell contents ([1]; two hours incubation): about 1.5% | material co-eluting with the methylamine standard, of initial radioactivity in the supernatant ([1]; two hours incubation): about 5% | radioactivity in the glyphosate peak remaining in the supernatant, of the initial levels ([1]; two hours incubation): about 33% | label as AMPA [1, 2]: 12.5% | label as glyphosate [1, 2]: 30% | label in the 13.2 minute peak (N-acetyl-AMPA) [1, 2]: 30% | label in the methylamine/N-acetyl-methylamine peak [1, 2]: 25% | N-acetyl-[^14C]AMPA, of total observed [^14C] (transformed corn callus; [3]): 4.54% | [^14C] AMPA, of total observed [^14C] (transformed corn callus; [3]): 1.71% | [^14C] glyphosate, of total observed [^14C] (transformed corn callus; [3]): 92.5% | Percent N-Acetyl-[^14C]-AMPA (transformed corn callus; callus OR516 transformed with pMON32926): 0.50-4.54% | Percent N-Acetyl-[^14C]-AMPA (transformed corn callus; callus OR516 transformed with pMON32926, listed as [^14C]-glyphosate): 1.91% | Percent [^14C]-AMPA (transformed corn callus; callus line transformed with pMON32571): 2.89% | Percent N-Acetyl-[^14C]-AMPA (transformed corn callus; callus line transformed with pMON32573): 0.39% | Percent N-Acetyl-[^14C]-AMPA (transformed corn callus; callus line transformed with pMON32932): 0.28% | Percent N-Acetyl-[^14C]-AMPA (transformed corn callus; callus line transformed with pMON32938): 0.21% | Percent [^14C]-AMPA (transformed corn callus; callus line transformed with pMON32946): 2.51% | Percent [^14C]-AMPA (transformed corn callus; callus line transformed with pMON32947): 1.99% | Percent N-Acetyl-[^14C]-AMPA (transformed corn callus; callus line transformed with pMON32952): 0.37% | Percent N-Acetyl-[^14C]-AMPA (transformed corn callus; callus lines transformed with pMON32571, listed as [^14C]-glyphosate): 0.22% and 0.25% | Percent N-Acetyl-[^14C]-AMPA (transformed corn callus; callus lines transformed with pMON32931, listed as [^14C]-glyphosate): 0.40% and 0.75% and 0.55% | Percent [^14C]-AMPA (transformed corn callus; callus lines transformed with pMON32936, listed as [^14C]-glyphosate): 2.29% and 3.05% and 2.15% and 2.06% | Percent [^14C]-AMPA (transformed corn callus; callus lines transformed with pMON32938, listed as [^14C]-glyphosate): 2.41% and 2.90% | Percent N-Acetyl-[^14C]-AMPA (transformed corn callus; callus lines transformed with pMON32946, listed as [^14C]-glyphosate): 0.77% and 0.85% | Percent N-Acetyl-[^14C]-AMPA (transformed corn callus; callus lines transformed with pMON32947, listed as [^14C]-glyphosate): 0.60% and 0.71% | N-acetyl-[^14C]-AMPA produced (transformed corn callus; [4]): no detectable levels | [^14C]-AMPA produced (transformed corn callus; [4]): only background levels
